Measured values: patent US10624948B2, “Use of cell-permeable peptide inhibitors of the JNK signal transduction pathway for the treatment of various diseases” (Xigen Inflammation Ltd., priority 2013, dated 2020)

Assays:
[1] = system: Sprague-Dawley rats, STZ diabetic nephropathy; assay: Rat model of diabetic nephropathy (STZ, high fat diet); format: in vivo; conditions: Losartan 25 mg/kg po daily
Description: Losartan has been used as a positive control. Seventy-four male Sprague-Dawley rats (200-250 g; including 4 spare animals) from Charles River (Margate, Kent) were used. Rats were housed in pairs in polypropylene cages with free access to a high fat diet (D12492 60% of kcal derived from fat) and tap water at all times. The diet has been purchased from Research Diets, New Jersey, USA. All animals have been maintained at 21±4° C. and 55±20% humidity on a normal light (lights on: 07:00-19:00). […] About 40 animals have been assigned to Cohort A and the remaining 30 to Cohort B, balanced as far as possible for body weight, plasma glucose and food and water intake. […] In all groups, food and water intake have been determined twice weekly (on the day of iv dosing and on water refill days. Blood glucose has been determined monthly. Samples were collected as detailed previously by glucometer (One Touch Ultra2). Blood samples have been taken in the freely fed state (beginning at approx. 09:00). Animals have been dosed immediately afterwards by the respective route to a timed schedule. Subsequent to dosing, each animal has been placed in a metabolism cage with free access to food and water for a 24 h period. To reduce evaporation, the glass urine collectors have been placed in a polystyrene container (Sca-online, UK) which was filled with ice. […] Food consumed and water drunk has also been calculated. […]

[2] = Phase II trial, safety and tolerability (adverse events)
Description: The criteria for evaluation of safety were:
An AE is therefore any unfavorable and unintended sign, symptom or disease temporally associated with the use of a medicinal product, whether or not considered related to the medicinal product.
Patients were analyzed as treated, i.e. according to the treatment which they received. The safety set was the primary analysis set for the safety analysis.
The present study was a double-blind study. All patients who were randomized and for whom the sub-conjunctival injection was started are included in the safety analysis by dose group. […] If the study treatment eye drops were stopped prematurely (i.e. before day 21), the patients concerned continued follow-up until day 28, in accordance with the study protocol.
Investigators assessed (in a blinded manner) the relationship of each reported AE to any of the study treatments. An event was considered to be related to study treatment if the Investigator ticked either ‘possible’ or ‘probable’ as the reply to this question.

[3] = system: post-operative intraocular inflammation; conditions: Dexamethasone (N = 50)
Description: The objectives of the SDD-1002-035 study were to evaluate the efficacy and safety of a single sub-conjunctival injection of XG-102 90 or 900 μg administered within maximally 3 hours after the end of the surgical procedure compared to dexamethasone eye drops administered 4 times/day for 21 days in post-operative intraocular inflammation.
In accordance with this trial's primary objective, the primary outcome was evaluated by the mean anterior chamber cells grade at day 28 post-administration of the sub-conjunctival injection of study treatment comparing XG-102 900 μg with dexamethasone eye drops.
The present trial was a randomized (1:1:1), controlled, double-blind, multicenter non-inferiority clinical trial with three parallel groups of equal size. Randomization, which was blocked by center, was performed using a web-based, secure, randomization system. […]
The primary objective was evaluated by the mean anterior chamber cells grade at day 28 post-administration of the sub-conjunctival administration of study treatment. […]

Structure (SMILES)	body weight [1]	Adverse events which led to an interruption of study treatment ([2]; Dexamethasone dose group)	patients with Intraocular pressure increased ([2]; dexamethasone) [%]	percentage of patients who experienced an AE within 24 hours ([2]; dexamethasone group) [%]	Premature withdrawal of study tx eye drops, # patients (%) [3]
CCCCc1nc(Cl)c(CO)n1Cc1ccc(-c2ccccc2-c2nn[nH]n2)cc1 [Losartan]	significantly lower				
C[C@@H]1C[C@H]2[C@@H]3CCC4=CC(=O)C=C[C@]4(C)[C@@]3(F)[C@@H](O)C[C@]2(C)[C@@]1(O)C(=O)CO [dexamethasone, reference compound]		3 (5.5%) number of events (%)	14	30	3 (6.0%)
